For experiment [1], the system named is potassium canal (isolated arteria mesenterica anterior). The experiment in a line: Potassium canal binding ("bandage") and selectivity on isolated arteria mesenterica anterior of rabbits. The note with it: isolated rabbit mesenteric artery; KCl vs adrenaline contraction, TEA medium. The method, then: 1. […] Rabbits of both sexes weighing 2000-2500 g were anesthetized by a hit at the nape, the abdominal wall was cut open and the arteria mesenterica anterior was mounted after exsanguination. The artery was put into a Krebs solution of a temperature of 37° C. infiltrated with carbogene while removing the interstitial residues. Then a 2 mm wide spiral is cut from the artery and this artery stripe is prestretched in an organ pot in Krebs solution of a temperature of 37° C., infiltrated with carbogene, by a stretching of 0.5 g. In the experiment Hugo Basile type dynamometer heads, Hugo Basile type amplifiers and Perkin Elmer type potentiometer have been used for amplifying and fixing the signs. Two parallel organs were used for the qualitative tests. One of them was contracted by adding 30 mmoles of KCl after an incubation time of 1 hour, the other one by 5 μmoles of adrenaline. Then the arteries were relaxed by the cumulative addition of the substance to be examined. The system was washed with a Krebs solution containing 30 mmoles of tetraethyl ammonium bromide (TEA) and the organs were incubated for 30 minutes in a TEA-containing medium. After incubation the organs were again contracted with potassium and noradrenaline and a dilatation was induced by using the substance to be examined. In a quantitative test organs contracted with 5 μmoles of noradrenaline were relaxed with the substance to be examined and the dose inducing a 50% dilatation was determined.

A further experiment concerns normotensive rats. Kind of experiment: Decrease of blood pressure on normotensive rats measured by average arterial tension. Further details: Pulse: unit not given beside the values; Average arterial tension / Decrease (of average arterial tension): unit not given here. The class given is in vivo, Wistar rats. The protocol:
2. Decrease of blood pressure on normotensive rats measured by average arterial tension
Wistar rats of both sexes weighing 230-260 g were used in the experiments. The rats were narcotised by 40 mg/kg of pentobarbital. The trachea was mounted and a polyethylene canula was introduced into the trachea, vena jugularis sinester and to the arteria carotis communis sinester. The substances to be examined were introduced into the organism of the animal through the duodenum. The pulsatory, systolic and diastolic blood pressure and the pulse were continuously measured by using a Statham type tensiometer head and haemodynamic measuring system produced by the Hungarian firm Experimetria Kft. After the blood pressure has become stable 0.75 μg of adrenaline were administered intravenously to measure the effect of alpha-adrenergic receptors on the blood pressure. After the hypertension has ceased 0.1 μg/kg of isoproterenole is added in order to characterize the activity of the β-adrenerg receptors. After tachycardia has ceased the test compound was administered i.d. and the treatment with the receptor stimulants was repeated after an hour in order to characterize the effect of the test compound on adrenergic receptor subclasses.
Change of the blood pressure on normotensive rats measured on six test animals

[2] abbreviates: 1 mg/kg i.d., time 0 min (baseline).
[3] abbreviates: 5 mg/kg i.d., time 0 min (baseline).
Where [4] appears, read: 10 mg/kg i.d., time 0 min (baseline).

In the case of `COc1cc2c(cc1OC)[C@@H](N1CCCC1=O)[C@H](O)C(C)(C)O2` (racemic) [Example 1, (+/-)-6,7-dimethoxy-3,4-dihydro-2,2-dimethyl-trans-4-(2-oxo-1-pyrrolidinyl)-2H-benzo(b)pyran-3-ol], the Mechanism of effect entry in experiment [1] is “Potassium canal activator”. Besides, the Selectivity result in experiment [1] is reported as “selective”. Also, the Average arterial tension in the experiment with normotensive rats (setting [2]) came out at 107 ± 11; in the experiment with normotensive rats (1 mg/kg i.d., time 1 min), 56 ± 6; in the experiment with normotensive rats (1 mg/kg i.d., time 10 min), 56 ± 6; in the experiment with normotensive rats (1 mg/kg i.d., time 30 min) it was 49 ± 4; with normotensive rats (1 mg/kg i.d., time 60 min), 71 ± 20. The Pulse with normotensive rats (setting [2]) is recorded as 394 ± 27; in the experiment with normotensive rats (1 mg/kg i.d., time 1 min), 403 ± 34; with normotensive rats (1 mg/kg i.d., time 10 min) it was 400 ± 31; in the experiment on normotensive rats (1 mg/kg i.d., time 30 min), 400 ± 31; in the experiment with normotensive rats (1 mg/kg i.d., time 60 min) it was 382 ± 31. Also, the “Decrease (of average arterial tension)” value in the experiment with normotensive rats (1 mg/kg i.d., time 1 min) was -51; in the experiment on normotensive rats (1 mg/kg i.d., time 10 min) it was -51; with normotensive rats (1 mg/kg i.d., time 30 min), -45; in the experiment with normotensive rats (1 mg/kg i.d., time 60 min), -36.

`COc1cc2c(cc1Cl)[C@@H](N1CCCC1=O)[C@H](O)C(C)(C)O2` (racemic) [Example 10, (+/-)-6-chloro-7-methoxy-3,4-dihydro-2,2-dimethyl-trans-4-(2-oxo-1-pyrrolidinyl)-2H-benzo (b) pyran-3-ol]: the Mechanism of effect entry in experiment [1] was “Potassium canal activator”. Moreover, the Selectivity result in experiment [1] was “selective”. Besides, the Average arterial tension in the experiment on normotensive rats (setting [3]) worked out at 108 ± 15; in the experiment on normotensive rats (5 mg/kg i.d., time 1 min), 62 ± 3; in the experiment with normotensive rats (5 mg/kg i.d., time 10 min), 68 ± 6; with normotensive rats (5 mg/kg i.d., time 30 min) it was 96 ± 15; in the experiment with normotensive rats (5 mg/kg i.d., time 60 min) it was 109 ± 26. Besides, the Pulse was 402 ± 4 in the experiment with normotensive rats (setting [3]); 418 ± 18 in the experiment with normotensive rats (5 mg/kg i.d., time 1 min); 436 ± 18 in the experiment on normotensive rats (5 mg/kg i.d., time 10 min); 424 ± 10 in the experiment with normotensive rats (5 mg/kg i.d., time 30 min); 396 ± 13 with normotensive rats (5 mg/kg i.d., time 60 min). Further, the “Decrease (of average arterial tension)” value is listed as -46 with normotensive rats (5 mg/kg i.d., time 1 min); -40 with normotensive rats (5 mg/kg i.d., time 10 min); -12 in the experiment with normotensive rats (5 mg/kg i.d., time 30 min); “+1” with normotensive rats (5 mg/kg i.d., time 60 min).

As to `COc1cc2c(cc1C#N)[C@@H](N1CCCC1=O)[C@H](O)C(C)(C)O2` (racemic) [Example 15, (+/-)-6-cyano-7-methoxy-3,4-dihydro-2,2-dimethyl-trans-4-(2-oxo-1-pyrrolidinyl)-2H-benzo (b) pyran-3-ol], the Mechanism of effect result in experiment [1] is reported as “Potassium canal activator”. Further, the Selectivity result in experiment [1] is on record as “selective”. Also, the Average arterial tension with normotensive rats (setting [2]) is 125 ± 13; in the experiment with normotensive rats (1 mg/kg i.d., time 1 min) it was 92 ± 10; in the experiment with normotensive rats (1 mg/kg i.d., time 10 min), 103 ± 5; in the experiment with normotensive rats (1 mg/kg i.d., time 30 min), 118 ± 15; in the experiment with normotensive rats (1 mg/kg i.d., time 60 min), 122 ± 10. Moreover, the Pulse in the experiment with normotensive rats (setting [2]) came out at 412 ± 45; in the experiment on normotensive rats (1 mg/kg i.d., time 1 min), 439 ± 42; in the experiment on normotensive rats (1 mg/kg i.d., time 10 min), 430 ± 45; in the experiment on normotensive rats (1 mg/kg i.d., time 30 min), 430 ± 45; in the experiment on normotensive rats (1 mg/kg i.d., time 60 min) it was 412 ± 37. Also, the “Decrease (of average arterial tension)” value is given as -33 in the experiment with normotensive rats (1 mg/kg i.d., time 1 min); -22 with normotensive rats (1 mg/kg i.d., time 10 min); -7 in the experiment with normotensive rats (1 mg/kg i.d., time 30 min); -3 in the experiment on normotensive rats (1 mg/kg i.d., time 60 min).

In the case of `COc1cc2c(cc1Br)[C@@H](N1CCCC1=O)[C@H](O)C(C)(C)O2` (relative stereo) [Example 9, (+/-) 16-bromo-7-methoxy-3,4-dihydro-2,2-dimethyl-trans-4-(2-oxo-1-pyrrolidinyl)-2H-benzo (b) pyran-3-ol], the Mechanism of effect entry in experiment [1] is recorded as “Potassium canal activator”. The Selectivity entry in experiment [1] was “selective”. Also, the Average arterial tension was 117 ± 19 in the experiment on normotensive rats (setting [4]); 119 ± 16 with normotensive rats (10 mg/kg i.d., time 1 min); 58 ± 5 in the experiment with normotensive rats (10 mg/kg i.d., time 10 min); 65 ± 15 in the experiment on normotensive rats (10 mg/kg i.d., time 30 min); 87 ± 18 with normotensive rats (10 mg/kg i.d., time 60 min). Further, the Pulse in the experiment with normotensive rats (setting [4]) amounted to 406 ± 51; with normotensive rats (10 mg/kg i.d., time 1 min) it was 406 ± 51; in the experiment on normotensive rats (10 mg/kg i.d., time 10 min), 436 ± 62; with normotensive rats (10 mg/kg i.d., time 30 min), 430 ± 63; in the experiment on normotensive rats (10 mg/kg i.d., time 60 min), 430 ± 63. The “Decrease (of average arterial tension)” value with normotensive rats (10 mg/kg i.d., time 1 min) was “+2”; in the experiment on normotensive rats (10 mg/kg i.d., time 10 min) it was -59; in the experiment on normotensive rats (10 mg/kg i.d., time 30 min), -52; in the experiment on normotensive rats (10 mg/kg i.d., time 60 min), -30.

As for `COc1cc2c(cc1[N+](=O)[O-])[C@@H](N1CCCC1=O)[C@H](O)C(C)(C)O2` (relative stereo) [Example 11], in experiment [1], the Mechanism of effect result was “Potassium canal activator”. Besides, in experiment [1], the Selectivity entry was “selective”. Besides, the Average arterial tension with normotensive rats (setting [2]) was determined as 121 ± 21; in the experiment with normotensive rats (1 mg/kg i.d., time 1 min), 115 ± 11; in the experiment on normotensive rats (1 mg/kg i.d., time 10 min), 97 ± 23; with normotensive rats (1 mg/kg i.d., time 30 min) it was 105 ± 18; in the experiment on normotensive rats (1 mg/kg i.d., time 60 min), 107 ± 12. Also, the Pulse in the experiment with normotensive rats (setting [2]) is recorded as 388 ± 10; in the experiment with normotensive rats (1 mg/kg i.d., time 1 min) it was 373 ± 15; in the experiment on normotensive rats (1 mg/kg i.d., time 10 min), 394 ± 20; in the experiment with normotensive rats (1 mg/kg i.d., time 30 min) it was 382 ± 18; in the experiment with normotensive rats (1 mg/kg i.d., time 60 min), 382 ± 18. Moreover, the “Decrease (of average arterial tension)” value with normotensive rats (1 mg/kg i.d., time 1 min) is given as -6; in the experiment on normotensive rats (1 mg/kg i.d., time 10 min), -24; in the experiment with normotensive rats (1 mg/kg i.d., time 30 min), -16; in the experiment with normotensive rats (1 mg/kg i.d., time 60 min), -14.

As for `CC1(C)Oc2ccc(C#N)cc2C(N2CCCC2=O)C1O` (stereo not drawn) [BRL 34915, reference compound], in experiment [1], the Mechanism of effect result was “Potassium canal activator”. For the same compound, in experiment [1], the Selectivity entry was “selective”. The Average arterial tension in the experiment with normotensive rats (setting [2]) is on record as 112 ± 9; in the experiment on normotensive rats (1 mg/kg i.d., time 1 min), 45 ± 2; in the experiment with normotensive rats (1 mg/kg i.d., time 10 min), 45 ± 2; in the experiment on normotensive rats (1 mg/kg i.d., time 30 min) it was 49 ± 4; in the experiment on normotensive rats (1 mg/kg i.d., time 60 min), 61 ± 11. Moreover, the Pulse in the experiment on normotensive rats (setting [2]) was 368 ± 44; with normotensive rats (1 mg/kg i.d., time 1 min) it was 368 ± 31; in the experiment on normotensive rats (1 mg/kg i.d., time 10 min), 382 ± 25; with normotensive rats (1 mg/kg i.d., time 30 min) it was 377 ± 19; in the experiment on normotensive rats (1 mg/kg i.d., time 60 min), 373 ± 12. For the same compound, the “Decrease (of average arterial tension)” value in the experiment with normotensive rats (1 mg/kg i.d., time 1 min) is on record as -67; in the experiment with normotensive rats (1 mg/kg i.d., time 10 min) it was -67; with normotensive rats (1 mg/kg i.d., time 30 min) it was -63; with normotensive rats (1 mg/kg i.d., time 60 min) it was -51.

(Values after US5703113A, “Benzopyran derivatives” (priority 1992, dated 1997).)
